Our source for the inhibition values is ChEMBL document CHEMBL3832881, “CO-ADD antimicrobial screening data of OSM samples” (2017).

The test system of one assay is Candida albicans. The experiment in a line: Antifungal activity against Candida albicans ATCC 90028; Growth inhibition at 32 ug/mL in YNB media using NBS plates. The format is functional, ATCC 90028; CLSI reference. As to conditions: CLSI reference, ASSAY_TEST Inhibition of Fungal Growth, CONC 32 ug.mL-1, detection method Absorption (OD600), plate type NBS, 384well, time 18 hr.

The subject of a further assay is Pseudomonas aeruginosa. The experiment in a line: Antibacterial activity against Pseudomonas aeruginosa ATCC 27853; Growth inhibition at 32 ug/mL in CAMBH media using NBS plates. The format is functional, ATCC 27853; Type strain. As to conditions: Type strain, ASSAY_TEST Inhibition of Bacterial Growth, CONC 32 ug.mL-1, detection method Absorption (OD600), MEDIA CAMHB, plate type NBS, 384well, time 18 hr.

The test system of the next assay is Cryptococcus neoformans. The experiment in a line: Antifungal activity against Cryptococcus neoformans H99 ATCC 208821; Growth inhibition at 32 ug/mL in YNB media using NBS plates. The format is functional, ATCC 208821; H99 Type strain. As to conditions: H99 Type strain, ASSAY_TEST Inhibition of Fungal Growth, CONC 32 ug.mL-1, detection method Resazurin, Absorption (OD600-OD570), plate type NBS, 384well, time 18 hr.

A further assay concerns Staphylococcus aureus. The experiment in a line: Antibacterial activity against Staphylococcus aureus MRSA ATCC 43300; Growth inhibition at 32 ug/mL in CAMBH media using NBS plates. The format is functional, ATCC 43300; MRSA. As to conditions: ASSAY_TEST Inhibition of Bacterial Growth, CONC 32 ug.mL-1, detection method Absorption (OD600), MEDIA CAMHB, plate type NBS, 384well, time 18 hr.

In a further assay the test system is Acinetobacter baumannii. The experiment in a line: Antibacterial activity against Acinetobacter baumannii ATCC 19606; Growth inhibition at 32 ug/mL in CAMBH media using NBS plates. As to conditions: Type strain, ASSAY_TEST Inhibition of Bacterial Growth, CONC 32 ug.mL-1, detection method Absorption (OD600), MEDIA CAMHB, plate type NBS, 384well, time 18 hr. The format is functional, ATCC 19606; Type strain.

For a further assay, the system named is Klebsiella pneumoniae. The experiment in a line: Antibacterial activity against Klebsiella pneumoniae MDR ATCC 70063; Growth inhibition at 32 ug/mL in CAMBH media using NBS plates. The format is functional, ATCC 700603; MDR. The conditions noted are these: ATCC 700603, ASSAY_TEST Inhibition of Bacterial Growth, CONC 32 ug.mL-1, detection method Absorption (OD600), MEDIA CAMHB, plate type NBS, 384well, time 18 hr.

Another assay deals with Escherichia coli. The experiment in a line: Antibacterial activity against Escherichia coli ATCC 25922; Growth inhibition at 32 ug/mL in CAMBH media using NBS plates. The format is functional, ATCC 25922; Type strain. The conditions noted are these: Type strain, ASSAY_TEST Inhibition of Bacterial Growth, CONC 32 ug.mL-1, detection method Absorption (OD600), MEDIA CAMHB, plate type NBS, 384well, time 18 hr.

On to `COc1ccc(-n2c(C)cc(/C=C3\S/C(=N\c4ccccc4)NC3=O)c2C)cc1`, for which the inhibition at 32 µg/mL with Candida albicans is 7.8%; in the assay with Pseudomonas aeruginosa it was -4.2%; in the assay with Cryptococcus neoformans it was -4.3%; with Staphylococcus aureus it was 10.6%; in the assay on Acinetobacter baumannii, -2.8%; in the assay on Klebsiella pneumoniae it was -1.1%. Further, the inhibition at 32 µg/mL with Escherichia coli amounted to 2.8%.
In the case of `CC(C)C[C@H](NC(=O)[C@H](CCCCN)NC(=O)Cn1cc(CN2CCCNCCNCCCNCC2)nn1)C(=O)N[C@H](C(=O)N[C@@H](Cc1ccccc1)C(=O)N[C@@H](Cc1ccccc1)C(=O)O)C(C)C`, the inhibition at 32 µg/mL with Candida albicans is 1.3%; in the assay on Pseudomonas aeruginosa, 5%; in the assay on Cryptococcus neoformans, -3.4%; in the assay with Staphylococcus aureus, 16.9%; in the assay with Acinetobacter baumannii, 13.1%; with Klebsiella pneumoniae, 6%. Besides, the inhibition at 32 µg/mL in the assay with Escherichia coli stood at 21.4%.
For the compound `c1cc2c(s1)CCOC21CCN(Cc2ccc3c(c2)OCCO3)CC1`, the inhibition at 32 µg/mL in the assay on Candida albicans was 1%; in the assay on Pseudomonas aeruginosa, 8.6%; with Cryptococcus neoformans it was -5.8%; with Staphylococcus aureus, 17.4%; in the assay on Acinetobacter baumannii, 10.2%; with Klebsiella pneumoniae it was 19.3%. Further, the inhibition at 32 µg/mL with Escherichia coli was found to be 16.1%.
Regarding `c1ccc(CN2CCC3(CC2)OCCc2ccsc23)cc1`, the inhibition at 32 µg/mL is 3.6% in the assay with Candida albicans; 11.9% in the assay with Pseudomonas aeruginosa; -4% with Cryptococcus neoformans; 17.1% with Staphylococcus aureus; 9.8% in the assay with Acinetobacter baumannii; 8.6% in the assay with Klebsiella pneumoniae. Besides, in the assay on Escherichia coli, the inhibition at 32 µg/mL worked out at 17.1%.
As to `Cc1cc(C(=O)OCC(N)=O)c(C)n1-c1ccc(F)cc1`, the inhibition at 32 µg/mL with Candida albicans is 7.5%; in the assay with Pseudomonas aeruginosa, 6%; in the assay with Cryptococcus neoformans, -2.2%; in the assay with Staphylococcus aureus, 24.9%; with Acinetobacter baumannii, 12.2%; in the assay with Klebsiella pneumoniae it was 12.3%. Besides, the inhibition at 32 µg/mL with Escherichia coli is 13.4%.
For `O=C(CCCC[C@@H]1SC[C@@H]2NC(=O)N[C@@H]21)NCCCn1cc(CN2CCCNCCNCCCNCC2)nn1`, the inhibition at 32 µg/mL in the assay with Candida albicans was determined as 2.8%; in the assay on Pseudomonas aeruginosa it was 10.9%; in the assay on Cryptococcus neoformans, 41.9%; in the assay on Staphylococcus aureus, 19.4%; in the assay on Acinetobacter baumannii, 23%; in the assay with Klebsiella pneumoniae it was 12.5%. Also, in the assay with Escherichia coli, the inhibition at 32 µg/mL was 15.2%.
For `COc1ccc(-n2c(C)cc(/C=C3\S/C(=N\c4cccc(O)c4)NC3=O)c2C)cc1`, the inhibition at 32 µg/mL in the assay on Candida albicans was 2.5%; in the assay with Pseudomonas aeruginosa, -0.1%; in the assay on Cryptococcus neoformans, -6.8%; with Staphylococcus aureus it was 8.9%; in the assay with Acinetobacter baumannii, -4.5%; with Klebsiella pneumoniae, -1.3%. In addition, in the assay on Escherichia coli, the inhibition at 32 µg/mL came to 2.1%.
As to `Clc1ccccc1-c1nnc2cncc(OCCc3ccccc3)n12`, the inhibition at 32 µg/mL is 1.8% with Candida albicans; 14.7% with Pseudomonas aeruginosa; -5.6% in the assay with Cryptococcus neoformans; 15.3% with Staphylococcus aureus; 5.2% with Acinetobacter baumannii; 6.2% in the assay with Klebsiella pneumoniae. The inhibition at 32 µg/mL with Escherichia coli was 17.8%.
In the case of `c1ccc(CN2CCC3(CC2)OCCc2cc(-c4ccccc4)sc23)cc1`, the inhibition at 32 µg/mL in the assay on Candida albicans is 9.1%; in the assay with Pseudomonas aeruginosa, -1.5%; with Cryptococcus neoformans, -0.6%; in the assay with Staphylococcus aureus it was 18.9%; in the assay on Acinetobacter baumannii it was 6.6%; in the assay on Klebsiella pneumoniae it was 12.4%. Further, the inhibition at 32 µg/mL with Escherichia coli turned out to be 14.3%.
Take `COc1cc2c(cc1OC)C1(CCN(Cc3ccccc3)CC1)OCC2`: the inhibition at 32 µg/mL in the assay with Candida albicans was 2.2%; with Pseudomonas aeruginosa, 23.6%; in the assay with Cryptococcus neoformans, -8.2%; in the assay with Staphylococcus aureus, 16.9%; with Acinetobacter baumannii it was 7.9%; in the assay with Klebsiella pneumoniae, 16.4%. Also, in the assay on Escherichia coli, the inhibition at 32 µg/mL was 17.8%.
As to `O=C(Nc1cccc(Cl)c1)c1cncc2nnc(-c3ccc(OC(F)(F)F)cc3)n12`, the inhibition at 32 µg/mL was 3.5% in the assay with Candida albicans; 4% in the assay on Pseudomonas aeruginosa; -2.8% with Cryptococcus neoformans; 5.8% in the assay on Staphylococcus aureus; -5.2% in the assay with Acinetobacter baumannii; 1.6% in the assay with Klebsiella pneumoniae. Further, the inhibition at 32 µg/mL in the assay on Escherichia coli amounted to 3.5%.
As to `O=C(Nc1cccc(Cl)c1F)c1cncc2nnc(-c3ccc(OC(F)F)cc3)n12`, the inhibition at 32 µg/mL is 1.1% in the assay with Candida albicans; 1% in the assay with Pseudomonas aeruginosa; -7.5% in the assay on Cryptococcus neoformans; 1.4% with Staphylococcus aureus; -9.8% in the assay with Acinetobacter baumannii; -0.7% with Klebsiella pneumoniae. Moreover, in the assay on Escherichia coli, the inhibition at 32 µg/mL is -1.1%.
Take `Nc1ncnc2cc(-c3cccc(S(N)(=O)=O)c3)sc12`: the inhibition at 32 µg/mL is 8.9% in the assay on Candida albicans; 2.3% in the assay on Pseudomonas aeruginosa; -4.6% in the assay on Cryptococcus neoformans; 27.6% in the assay with Staphylococcus aureus; 7.5% with Acinetobacter baumannii; 9.5% in the assay with Klebsiella pneumoniae. In the assay with Escherichia coli, the inhibition at 32 µg/mL was determined as 17.9%.
In the case of `Cc1cc(/C=C2\S/C(=N\c3ccccc3)NC2=O)c(C)n1-c1ccc(C(F)(F)F)cc1`, the inhibition at 32 µg/mL with Candida albicans is 9.8%; with Pseudomonas aeruginosa, 7.3%; in the assay with Cryptococcus neoformans, -1.7%; in the assay with Staphylococcus aureus, 17.9%; in the assay on Acinetobacter baumannii it was 9.1%; in the assay with Klebsiella pneumoniae, 6.7%. The inhibition at 32 µg/mL with Escherichia coli is 6.8%.
For `Nc1ncnc2cc(-c3ccc(C(=O)N4CCOCC4)cc3)sc12`, the inhibition at 32 µg/mL was 1% in the assay with Candida albicans; 2.4% with Pseudomonas aeruginosa; -1.2% in the assay with Cryptococcus neoformans; 22.2% with Staphylococcus aureus; 8.3% in the assay on Acinetobacter baumannii; 5.4% in the assay with Klebsiella pneumoniae. Besides, the inhibition at 32 µg/mL in the assay with Escherichia coli is 8.6%.
